US20250381269A1, “BISPECIFIC ANTIBODY BINDING EGFR AND B7-H3” (FORTVITA BIOLOGICS (SINGAPORE) PTE. LTD., priority 2022, published 2025)

Key:
[1] = system: NCI-H358 tumor-bearing mice; assay: Anti-tumor efficacy in NCI-H358 tumor-bearing mice, combination with AMG510; format: in vivo, NOG mice; details: NCI-H358, NOG mice, day 33; for Tumor volume (mm^3): antibodies 10 mg/kg i.p. Q3-4D x4 (h-IgG 20 mg/kg), AMG510 10 mg/kg intragastric QD x14; for Tumor growth inhibition (%): antibodies 10 mg/kg i.p. Q3-4D x4, AMG510 10 mg/kg intragastric QD x14, vs h-IgG 20 mg/kg
Protocol: SPF female NOG mice (purchased from Beijing Vital River Laboratory Animal Technology Co., Ltd.) with certificate No. 1100112211001153625 were used in the experiment.
NCI-H358 cells were routinely subcultured for the subsequent in-vivo experiment. The cells were collected by centrifugation. Then the NCI-H358 cells were resuspended in an equal-proportion mixture of PBS (1×) and Matrigel Matrix (Corning) to prepare a cell suspension with a cell concentration of 25×10^6 cells/mL. On day 0, 0.2 mL of the cell suspension was taken and subcutaneously inoculated to the right abdominal area of NOG mice to establish NCI-H358 tumor-bearing mouse models.
Six days after the tumor cell inoculation, the tumor volume in each mouse was measured. The mice were grouped (with 7 mice in each group).
Administration was performed on days 6, 9, 12, and 15 after the inoculation of NCI-H358 cells. Mice were monitored for tumor volume and body weight twice a week. […] Mice were monitored for tumor volume twice a week, and were monitored for body weight every day during the administration, and twice a week after the end of administration. […] On day 33 after the inoculation, the relative tumor growth inhibition (TG1%) was calculated by the following formula: TG1%=100%×(control group tumor volume−treatment group tumor volume)/(control group tumor volume−control group tumor volume before administration).
Tumor volume measurement: The maximum length of major axis (L) and maximum length of minor axis (W) of tumors were measured with a vernier caliper, and tumor volume was calculated by the following formula: V=L×W^2/2. The mice were weighed using an electronic balance.

[2] = system: H322; format: cell-based, human; details: EGFR WT, KRAS WT, huPBMC:target 50:1, 8 h, LDH
Protocol: (§1) • (1) A CTS medium (Gibco, A3021002) was preheated at 37° C. huPBMC (Miaotong Biotechnology, PB 100C-W) was quickly thawed in a water bath, and then the cells were added slowly to 8 mL of CTS medium (containing 1% DNase). • (2) The mixture was centrifuged at 300 g for 8 min. The supernatant was removed, and the cells were resuspended in 30 mL of CTS (containing 10 μL of DNase), transferred to a T75 flask, and incubated in an incubator at 37° C. overnight. • (3) The suspension cells cultured overnight were taken and centrifuged at 300 g for 8 min. The supernatant was removed, and the cell density was adjusted with CTS. According to an effector/target ratio of effector cells (huPBMCs) to target cells (tumor cells in Table 5) of 50:1, huPBMCs and the tumor cells prepared in advance (Target: huPBMC=1.5E4/7.5E5 cells/well/100 μL) were plated in a 96-well low-adsorption plate (Corning. CLS7007-24EA). • (4) The diluted antibody drug was added to the corresponding cell well plate and cultured at 37° C. with 5% CO2 for 8 h. • (5) The mixture was centrifuged at 300 g for 5 min. 50 μL of the supernatant was transferred to a 96-well transparent flat-bottom plate ((NUNC, 136101), 50 μL of the LDH reagent (Promega, G1780) prepared in advance was added to the corresponding well plate, and the plate was left to stand at room temperature for 15-30 min in the dark. • (6) 50 μL LDH stop solution (Promega, G1780) was taken and detected by a multimode microplate reader (Molecular Devices, Spectra MAXi3) at 490 nm for readings.

[3] = system: H292; format: cell-based, human; details: EGFR WT, KRAS WT, huPBMC:target 50:1, 8 h, LDH
Protocol: as §1

[4] = system: H1975; format: cell-based, human; details: EGFR L858R T790M, KRAS WT, huPBMC:target 50:1, 8 h, LDH
Protocol: as §1

[5] = system: H358; format: cell-based, human; details: EGFR WT, KRAS G12C, huPBMC:target 50:1, 8 h, LDH
Protocol: as §1

[6] = system: SK-MES-1; format: cell-based, human; details: EGFR Amplification, KRAS WT, huPBMC:target 50:1, 8 h, LDH
Protocol: as §1

[7] = system: H1650; format: cell-based, human; details: EGFR Amplification Del19, KRAS WT, huPBMC:target 50:1, 8 h, LDH
Protocol: as §1

[8] = system: H1975; assay: Proliferation inhibition experiment, H1975 (NSCLC); format: cell-based; details: EGFR L858R T790M, KRAS WT
Protocol: • (1) NSCLC: plated at 1500-2500 cells/100 μL in a 96-well low-adsorption plate (Corning, CLS7007-24EA) for 3D cell culture, in which the following cell lines and specific amounts were used: • NSCLC: 2000 cells/100 μL/well • NCI-H292: Cell Bank of the Chinese Academy of Sciences, SCSP-582 • NCI-H322: Cobioer, CBP60134 • NCI-H1650: ATCC, CRL-5883 • NCI-H1975: ATCC, CRL-5908 • SK-MES-1: CoBioer, CBP60152 • NCI-H1703: ATCC, HTB-43 • PC9+hB7H3: constructed as described above • CRC and HNSCC: plated at 1500-2000 cells/100 μL in a 96-well white-bottom plate (NUNC, 136101) for 2D cell culture, in which the following cell lines and specific amounts were used: • CRC: 1500 cells/100 μL/well • CCK-81: CoBioer, CBP60581 • HT-55: CoBioer, CBP60012 • H508: CoBioer, CBP60795 • LS180: CoBioer, CBP60034 • HNSCC: 1500 cells/100 μL/well • TE-1: CoBioer, CBP60655 • Colo680: CoBioer, CBP60452. (2) The antibody molecules prepared in advance by dilution were added to the corresponding cell well plate, mixed well, and cultured in an incubator at 37° C. with 5% CO2 for 5 days. • (3) After 5 days of continuous culture for proliferation inhibition assay, the Cell-Titer reagent (Promega, G7572) prepared in advance was added to cell wells, the plate was left to stand at room temperature for 15-25 min in the dark, and then CRC and HNSCC cells were directly detected by a multimode microplate reader (Molecular Devices, Spectra MAXi3). • (4) NSCLC: Cell-Titer and the cell mixture were transferred to a 96-well white-bottom plate (NUNC, 136101) and detected by a multimode microplate reader (Molecular Devices, Spectra MAXi3).

Row | Substance | Tumor volume (mm^3) [1] [mm^3] | Tumor growth inhibition (%) [1] [%] | EC50 [2] [nM] | EC50 [3] [pM] | EC50 [4] [nM] | EC50 [5] [nM] | EC50 [6] [nM] | EC50 [7] [nM] | Max inhibition (%) Mean ± SD [8] [%] | IC50 ([8]; 3D culture, 5 days) [nM]
1 | amivantamab [JNJ372] | 196 | 82 | 0.032 | 4 | 0.117 | 0.03 | 0.072 | 0.427 | 47.9 ± 3.0 | 5.67
2 | zalutumumab [Zalu mAb] | 126 | 111 | 0.014 | 1 | 0.118 | 0.007 | 0.014 | 0.571 | 51.0 ± 2.3 | 
